In brackets after ≈: the same amount, converted by molar mass.
Tests used:
[1] = Distribution coefficient, log D of the compound in 1-octanol and PBS buffer at pH 7.4 measured after 30 mins by LC-MS analysis; format: physicochemical; settings: 1-octanol/PBS buffer
[2] = Aqueous thermodynamic solubility of the compound at pH 6.8 measured after 4 hrs by UV-HPLC analysis; format: physicochemical; settings: buffer, pH 6.8; read-out: Therm_solubility
[3] = Stability of the compound in mouse liver microsomes assessed as parent compound remaining measured after 0.5 hrs; format: ADME, Microsome; settings: mouse liver microsomes, read-out: Stability

Row | SMILES | logD at 0.5 h [1] | solubility thermodynamic at 4 h [2] | remaining at 0.5 h [3]
1 | Cn1nccc1[C@H]1CCCC[C@@H]1Oc1cc(F)c(S(=O)(=O)Nc2ncns2)cc1F (racemic) | 0.7 | > 2000 µM | 75%
2 | Cn1nccc1[C@H]1CCC[C@@H]1Oc1cc(F)c(S(=O)(=O)Nc2ccncn2)cc1F (racemic) | 0.3 | 740 µM (≈ 322 µg/mL) | 100%
3 | Cn1nccc1[C@H]1CCCCC[C@@H]1Oc1cc(F)c(S(=O)(=O)Nc2ccncn2)c(F)c1 (racemic) | 0.6 | 1040 µM (≈ 482 µg/mL) | 97%
4 | Cn1nccc1[C@H]1CCC[C@@H]1Oc1cc(F)c(S(=O)(=O)Nc2ccncn2)c(F)c1 (racemic) | 0.1 | 1800 µM (≈ 784 µg/mL) | 80%

Reference: ChEMBL document CHEMBL4622872, “Discovery of DS-1971a, a Potent, Selective NaV1.7 Inhibitor” (J Med Chem, 2020)
